In patent US11083725B2 (priority 2014, dated 2021):

Test system: NHBE cells
Experiment: Biolog metabolic array: substrate use by NHBE cells with or without CA09 infection
Type: cell-based, human
Conditions: for Substrate use, 590 nm absorbance normalized to zero hour, 0 hr: Biolog PMM2, 0 hr; for Substrate use, 590 nm absorbance normalized to zero hour, 1 hr: Biolog PMM2, 1 hr; for Substrate use, 590 nm absorbance normalized to zero hour, 5 hr: Biolog PMM2, 5 hr; for Substrate use, 590 nm absorbance normalized to zero hour, 7 hr: Biolog PMM2, 7 hr
[1] = Control (uninfected) NHBE cells
[2] = Virus (CA09-infected, MOI 1) NHBE cells
[3] = Virus: CA09-infected NHBE cells, MOI 1, Biolog PMM2
[4] = Virus (CA09, MOI 1) infected NHBE cells
[5] = Virus (CA09-infected NHBE cells, MOI 1)

## CO[C@@H]1OC[C@@H](O)[C@H](O)[C@H]1O [b-Methyl-D-Xyloside]
[1]
  590 nm absorbance normalized to zero hour (substrate use), 0 hr: 1.00
  590 nm absorbance normalized to zero hour (substrate use), 1 hr: 1.53
  590 nm absorbance normalized to zero hour (substrate use), 2 hr: 6.40
  590 nm absorbance normalized to zero hour (substrate use), 3 hr: 1.59
  590 nm absorbance normalized to zero hour (substrate use), 4 hr: 1.73
  590 nm absorbance normalized to zero hour (substrate use), 6 hr: 1.14
  590 nm absorbance normalized to zero hour (substrate use), 8 hr: 4.02
  590 nm absorbance normalized to zero hour (substrate use), 9 hr: 2.33
  590 nm absorbance normalized to zero hour (substrate use), 10 hr: 2.61
  590 nm absorbance normalized to zero hour (substrate use), 11 hr: 3.03
  Substrate use, 590 nm absorbance normalized to zero hour, 0 hr: 1.00
  Substrate use, 590 nm absorbance normalized to zero hour, 1 hr: 1.53
  Substrate use, 590 nm absorbance normalized to zero hour, 5 hr: 2.08
  Substrate use, 590 nm absorbance normalized to zero hour, 7 hr: 4.46
[2]
  590 nm absorbance normalized to zero hour (substrate use), 0 hr: 1.00
  590 nm absorbance normalized to zero hour (substrate use), 1 hr: 1.92
  590 nm absorbance normalized to zero hour (substrate use), 2 hr: 2.38
  590 nm absorbance normalized to zero hour (substrate use), 3 hr: 2.79
  590 nm absorbance normalized to zero hour (substrate use), 4 hr: 2.82
  590 nm absorbance normalized to zero hour (substrate use), 5 hr: 3.12
  590 nm absorbance normalized to zero hour (substrate use), 6 hr: 3.28
  590 nm absorbance normalized to zero hour (substrate use), 7 hr: 3.39
  590 nm absorbance normalized to zero hour (substrate use), 8 hr: 3.52
  590 nm absorbance normalized to zero hour (substrate use), 9 hr: 3.77
  590 nm absorbance normalized to zero hour (substrate use), 10 hr: 3.87
  590 nm absorbance normalized to zero hour (substrate use), 11 hr: 4.01
[3]
  590 nm absorbance normalized to zero hour (substrate use), 0 hr: 1.00
  590 nm absorbance normalized to zero hour (substrate use), 1 hr: 1.92
  590 nm absorbance normalized to zero hour (substrate use), 2 hr: 2.38
  590 nm absorbance normalized to zero hour (substrate use), 3 hr: 2.79
  590 nm absorbance normalized to zero hour (substrate use), 4 hr: 2.82
  590 nm absorbance normalized to zero hour (substrate use), 5 hr: 3.12
  590 nm absorbance normalized to zero hour (substrate use), 6 hr: 3.28
  590 nm absorbance normalized to zero hour (substrate use), 7 hr: 3.39
  590 nm absorbance normalized to zero hour (substrate use), 8 hr: 3.52
  590 nm absorbance normalized to zero hour (substrate use), 9 hr: 3.77
  590 nm absorbance normalized to zero hour (substrate use), 10 hr: 3.87
  590 nm absorbance normalized to zero hour (substrate use), 11 hr: 4.01

## N[C@@H](C(=O)O)[C@@H](O)[C@H](O)[C@H](O)CO [D-Glucosaminic Acid]
[1]
  590 nm absorbance normalized to zero hour (substrate use), 0 hr: 1.00
  590 nm absorbance normalized to zero hour (substrate use), 1 hr: 0.86
  590 nm absorbance normalized to zero hour (substrate use), 2 hr: 0.94
  590 nm absorbance normalized to zero hour (substrate use), 3 hr: 0.90
  590 nm absorbance normalized to zero hour (substrate use), 4 hr: 1.21
  590 nm absorbance normalized to zero hour (substrate use), 6 hr: 0.36
  590 nm absorbance normalized to zero hour (substrate use), 8 hr: 0.97
  590 nm absorbance normalized to zero hour (substrate use), 9 hr: 0.98
  590 nm absorbance normalized to zero hour (substrate use), 10 hr: 0.97
  590 nm absorbance normalized to zero hour (substrate use), 11 hr: 0.39
  Substrate use, 590 nm absorbance normalized to zero hour, 0 hr: 1.00
  Substrate use, 590 nm absorbance normalized to zero hour, 1 hr: 0.86
  Substrate use, 590 nm absorbance normalized to zero hour, 5 hr: 1.22
  Substrate use, 590 nm absorbance normalized to zero hour, 7 hr: 0.95
[4]
  Substrate use, 590 nm absorbance normalized to zero hour, 0 hr: 1.00
  Substrate use, 590 nm absorbance normalized to zero hour, 1 hr: 1.69
  Substrate use, 590 nm absorbance normalized to zero hour, 5 hr: 3.09
  Substrate use, 590 nm absorbance normalized to zero hour, 7 hr: 3.47
[2]
  590 nm absorbance normalized to zero hour (substrate use), 0 hr: 1.00
  590 nm absorbance normalized to zero hour (substrate use), 1 hr: 1.69
  590 nm absorbance normalized to zero hour (substrate use), 2 hr: 2.21
  590 nm absorbance normalized to zero hour (substrate use), 3 hr: 2.51
  590 nm absorbance normalized to zero hour (substrate use), 4 hr: 2.69
  590 nm absorbance normalized to zero hour (substrate use), 6 hr: 3.31
  590 nm absorbance normalized to zero hour (substrate use), 8 hr: 3.57
  590 nm absorbance normalized to zero hour (substrate use), 9 hr: 3.89
  590 nm absorbance normalized to zero hour (substrate use), 10 hr: 3.88
  590 nm absorbance normalized to zero hour (substrate use), 11 hr: 3.32

## O=C(O)CCCO [g-Hydroxy-Butyric Acid]
[1]
  590 nm absorbance normalized to zero hour (substrate use), 0 hr: 1.00
  590 nm absorbance normalized to zero hour (substrate use), 1 hr: 1.24
  590 nm absorbance normalized to zero hour (substrate use), 2 hr: 1.38
  590 nm absorbance normalized to zero hour (substrate use), 3 hr: 1.92
  590 nm absorbance normalized to zero hour (substrate use), 4 hr: 1.86
  590 nm absorbance normalized to zero hour (substrate use), 6 hr: 0.79
  590 nm absorbance normalized to zero hour (substrate use), 8 hr: 1.94
  590 nm absorbance normalized to zero hour (substrate use), 9 hr: 2.09
  590 nm absorbance normalized to zero hour (substrate use), 10 hr: 2.05
  590 nm absorbance normalized to zero hour (substrate use), 11 hr: 2.76
  Substrate use, 590 nm absorbance normalized to zero hour, 0 hr: 1.00
  Substrate use, 590 nm absorbance normalized to zero hour, 1 hr: 1.24
  Substrate use, 590 nm absorbance normalized to zero hour, 5 hr: 1.71
  Substrate use, 590 nm absorbance normalized to zero hour, 7 hr: 1.88
[5]
  590 nm absorbance normalized to zero hour (substrate use), 0 hr: 1.00
  590 nm absorbance normalized to zero hour (substrate use), 1 hr: 0.53
  590 nm absorbance normalized to zero hour (substrate use), 2 hr: 0.53
  590 nm absorbance normalized to zero hour (substrate use), 3 hr: 0.41
  590 nm absorbance normalized to zero hour (substrate use), 4 hr: 0.44
  590 nm absorbance normalized to zero hour (substrate use), 5 hr: 0.50
  590 nm absorbance normalized to zero hour (substrate use), 6 hr: 0.54
  590 nm absorbance normalized to zero hour (substrate use), 7 hr: 0.56
  590 nm absorbance normalized to zero hour (substrate use), 8 hr: 0.59
  590 nm absorbance normalized to zero hour (substrate use), 9 hr: 0.62
  590 nm absorbance normalized to zero hour (substrate use), 10 hr: 0.63
  590 nm absorbance normalized to zero hour (substrate use), 11 hr: 0.53
[3]
  590 nm absorbance normalized to zero hour (substrate use), 0 hr: 1.00
  590 nm absorbance normalized to zero hour (substrate use), 1 hr: 0.53
  590 nm absorbance normalized to zero hour (substrate use), 2 hr: 0.53
  590 nm absorbance normalized to zero hour (substrate use), 3 hr: 0.41
  590 nm absorbance normalized to zero hour (substrate use), 4 hr: 0.44
  590 nm absorbance normalized to zero hour (substrate use), 5 hr: 0.50
  590 nm absorbance normalized to zero hour (substrate use), 6 hr: 0.54
  590 nm absorbance normalized to zero hour (substrate use), 7 hr: 0.56
  590 nm absorbance normalized to zero hour (substrate use), 8 hr: 0.59
  590 nm absorbance normalized to zero hour (substrate use), 9 hr: 0.62
  590 nm absorbance normalized to zero hour (substrate use), 10 hr: 0.63
  590 nm absorbance normalized to zero hour (substrate use), 11 hr: 0.53

## Mannan
[1]
  590 nm absorbance normalized to zero hour (substrate use), 0 hr: 1.00
  590 nm absorbance normalized to zero hour (substrate use), 1 hr: 1.03
  590 nm absorbance normalized to zero hour (substrate use), 2 hr: 0.89
  590 nm absorbance normalized to zero hour (substrate use), 3 hr: 1.03
  590 nm absorbance normalized to zero hour (substrate use), 4 hr: 1.06
  590 nm absorbance normalized to zero hour (substrate use), 6 hr: 1.80
  590 nm absorbance normalized to zero hour (substrate use), 8 hr: 1.08
  590 nm absorbance normalized to zero hour (substrate use), 9 hr: 1.09
  590 nm absorbance normalized to zero hour (substrate use), 10 hr: 1.11
  590 nm absorbance normalized to zero hour (substrate use), 11 hr: 1.27
  Substrate use, 590 nm absorbance normalized to zero hour, 0 hr: 1.00
  Substrate use, 590 nm absorbance normalized to zero hour, 1 hr: 1.03
  Substrate use, 590 nm absorbance normalized to zero hour, 5 hr: 1.14
  Substrate use, 590 nm absorbance normalized to zero hour, 7 hr: 1.15
[2]
  590 nm absorbance normalized to zero hour (substrate use), 0 hr: 1.00
  590 nm absorbance normalized to zero hour (substrate use), 1 hr: 1.03
  590 nm absorbance normalized to zero hour (substrate use), 2 hr: 1.25
  590 nm absorbance normalized to zero hour (substrate use), 3 hr: 1.28
  590 nm absorbance normalized to zero hour (substrate use), 5 hr: 1.41
  590 nm absorbance normalized to zero hour (substrate use), 6 hr: 1.44
  590 nm absorbance normalized to zero hour (substrate use), 7 hr: 1.49
  590 nm absorbance normalized to zero hour (substrate use), 8 hr: 1.49
  590 nm absorbance normalized to zero hour (substrate use), 9 hr: 1.61
  590 nm absorbance normalized to zero hour (substrate use), 11 hr: 1.76
[3]
  590 nm absorbance normalized to zero hour (substrate use), 0 hr: 1.00
  590 nm absorbance normalized to zero hour (substrate use), 1 hr: 1.03
  590 nm absorbance normalized to zero hour (substrate use), 2 hr: 1.25
  590 nm absorbance normalized to zero hour (substrate use), 3 hr: 1.28
  590 nm absorbance normalized to zero hour (substrate use), 5 hr: 1.41
  590 nm absorbance normalized to zero hour (substrate use), 6 hr: 1.44
  590 nm absorbance normalized to zero hour (substrate use), 7 hr: 1.49
  590 nm absorbance normalized to zero hour (substrate use), 8 hr: 1.49
  590 nm absorbance normalized to zero hour (substrate use), 9 hr: 1.61
  590 nm absorbance normalized to zero hour (substrate use), 11 hr: 1.76
